Reference: PubChem BioAssay (NCI)
Values joined by “and” are separate entries in the source; they are usually repeats but may differ in a detail not shown here. Identical values can stand only once.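 Step 1: Grow cells in 96-well plates. Step 2: Expose to compound for 48 hours at 5 concentrations. Step 3: Interpolate endpoints linearly; if unreached, use highest concentration. GI50 is the concentration that inhibits growth by half. Definition used: TGI = concentration required for complete inhibition of growth.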

Key:
Test in all cases: growth of human tumour cells (NCI), 48 h
A498 renal = tested on: A498 renal
CAKI-1 renal = tested on: CAKI-1 renal
HCT-15 colon = tested on: HCT-15 colon
HOP-92 NSCLC = tested on: HOP-92 NSCLC
HS 578T breast = tested on: HS 578T breast
OVCAR-3 ovarian = tested on: OVCAR-3 ovarian
OVCAR-8 ovarian = tested on: OVCAR-8 ovarian
SK-MEL-2 melanoma = tested on: SK-MEL-2 melanoma
UACC-62 melanoma = tested on: UACC-62 melanoma
HL-60(TB) leukemia = tested on: HL-60(TB) leukemia

Row | Compound | TGI (A498 renal) [µM] | TGI (CAKI-1 renal) | TGI (HCT-15 colon) [µM] | TGI (HOP-92 NSCLC) [µM] | TGI (HS 578T breast) | TGI (OVCAR-3 ovarian) | TGI (OVCAR-8 ovarian) [µM] | TGI (SK-MEL-2 melanoma) | TGI (UACC-62 melanoma) [µM] | GI50 (CAKI-1 renal) | GI50 (HL-60(TB) leukemia) | TGI (HL-60(TB) leukemia) | GI50 (OVCAR-3 ovarian) | GI50 (OVCAR-8 ovarian) | GI50 (A498 renal) [nM] | GI50 (HCT-15 colon) [µM] | GI50 (HOP-92 NSCLC) [µM] | GI50 (SK-MEL-2 melanoma) [nM] | GI50 (UACC-62 melanoma) [µM] | GI50 (HS 578T breast) [µM]
1 | COc1ccc2c(n1)Sc1nc3ccccc3nc1N2 | > 100 | > 100 µM | > 100 | > 100 | > 100 µM | > 100 µM | 57 | > 100 µM | 43.4 | – | – | – | – | – | – | – | – | – | – | –
2 | CC(=O)OCC1OC(SC2=N/C(=C\c3ccc(Br)s3)C(=O)N2c2ccccc2)C(OC(C)=O)C(OC(C)=O)C1OC(C)=O (configuration not stated) | > 100 | 32.5 µM and > 100 µM | > 100 | – | 78.4 µM and > 100 µM | > 100 µM and 85.2 µM | > 100 | > 100 µM and 48.9 µM | > 100 | 13.4 µM and 85.7 µM | 8.5 µM and 3.83 µM | > 100 µM and 21.4 µM | 91.1 µM and 20.7 µM | 27.9 µM and 70.3 µM | – | – | – | – | – | –
3 | C=C(C)CC(C(=O)O)c1ccc(C)cc1 (configuration not stated) | > 100 | > 100 µM | > 100 | > 100 | – | > 100 µM | > 100 | > 100 µM | > 100 | – | – | – | – | – | – | – | – | – | – | –
4 | O=CCCn1[nH]c(=O)ccc1=O | > 100 | > 100 µM | > 100 | > 100 | – | > 100 µM | > 100 | > 100 µM | > 100 | – | – | > 100 µM | – | – | – | – | – | – | – | –
5 | COc1ccc(O)c(/C=N\Nc2ccccc2)c1 | 91.6 | – | > 100 | > 100 | > 100 µM | – | > 100 | > 100 µM | 12.3 | – | – | 17.4 µM | – | – | – | – | – | – | – | –
6 | c1cc[c]([Ge]([O]c2cccc3cccnc23)([c]2ccccc2)[c]2ccccc2)cc1 | 25.7 | 28.9 µM | 12.4 | 25.5 | – | 6.82 µM | 10.6 | 11.7 µM | 16.4 | 10.8 µM | – | – | 2.55 µM | 3.25 µM | 13000 | 3.56 | 12.4 | 2590 | 4.6 | –
7 | COc1ccc2cc3c4cc(OC)c(OC)cc4ccn3c2c1 | > 100 | > 100 µM | – | > 100 | – | – | > 100 | > 100 µM | > 100 | – | – | > 100 µM | – | – | – | – | – | – | – | –
8 | O=C(Nc1ccc(Cl)c(C(F)(F)F)c1)Nc1ccc(-c2cccnc2)cc1N1CCC(CO)CC1 | 4.42 | 16 µM | 8.01 | 5.6 | 8.46 µM | 4.3 µM | 35.4 | 4.34 µM | 6.75 | 2.32 µM | – | – | 1.84 µM | 3.75 µM | 1260 | 2.32 | 2.22 | 1860 | 2.18 | 2.79
9 | N#CC(Sc1ccccc1)C(N)=O (configuration not stated) | > 100 | > 100 µM | > 100 | > 100 | – | > 100 µM | > 100 | – | > 100 | – | – | > 100 µM | – | – | – | – | – | – | – | –
10 | CC(=O)N1c2ccccc2N(C(C)=O)C1c1ccc(C2N(C(C)=O)c3ccccc3N2C(C)=O)[nH]1 | > 100 | > 100 µM | > 100 | > 100 | – | > 100 µM | > 100 | – | > 100 | – | – | > 100 µM | – | – | – | – | – | – | – | –
11 | C[C@]12Cc3conc3C(O)=C1CC[C@@H]1C2CC[C@@]2(C)C1CC[C@@H]2O (some centres not stated) | 57.7 | > 100 µM | > 100 | 63.6 | – | 52.5 µM | 88.5 | 21.4 µM | 54.6 | – | – | 10.7 µM | – | – | – | – | – | – | – | –
12 | CCN1/C(=C/C(C)=C/c2sc3ccc4ccccc4c3[n+]2CC)Sc2ccc3ccccc3c21 | 0.759 | 1.15 µM | 0.744 | 0.612 | – | 0.317 µM | 0.83 | 0.586 µM | 1.8 | 0.264 µM | 0.106 µM | 2.68 µM | 0.148 µM | 0.067 µM | 181 | 0.219 | 0.163 | 193 | 0.31 | –
13 | C=CC12CCCCC1CC(C(=O)OC)=C(O)C2 (configuration not stated) | – | > 100 µM | – | > 100 | – | > 100 µM | > 100 | > 100 µM | > 100 | – | – | > 100 µM | – | – | – | – | – | – | – | –
14 | CCCN(CCC)c1ccc(/C=N/NC(=O)c2cccnc2)c(C)c1 | 3.54 | 58.7 µM | 47.8 | 26.2 | 48.2 µM | 27.8 µM | 44.1 | – | 24.6 | 19.2 µM | 13.4 µM | 39.5 µM | 13 µM | 18 µM | 1060 | 11.9 | 11.3 | – | 11.4 | 13.9
15 | COc1cc2c3c(n(CCCN=[N+]=[N-])c(=O)c2cc1OC)-c1ccccc1C3=O | – | 7.77 µM | > 100 | 68.9 | – | 24.5 µM | > 100 | > 100 µM | 27.6 | 2.13 µM | – | – | 4.58 µM | 5.68 µM | – | 27.4 | 7 | > 100000 | 2.63 | –
16 | C=CCCn1nc(-c2ccccc2)oc1=O | > 100 | > 100 µM | > 100 | > 100 | – | > 100 µM | > 100 | > 100 µM | > 100 | – | – | > 100 µM | – | – | – | – | – | – | – | –
17 | COc1ccc(C)c2sc(N(Cc3cccnc3)C(=O)c3ccc(C#N)cc3)nc12 | 95.5 | > 100 µM | > 100 | > 100 | > 100 µM | > 100 µM | > 100 | – | > 100 | 47.2 µM | 31.1 µM | > 100 µM | 40.1 µM | 48.1 µM | 2210 | 30.5 | 20.3 | – | 31.1 | 50.2
18 | COc1ccc(C2(Cl)C(Cl)(C(F)(F)F)C2(Cl)C(F)(F)F)cc1 (configuration not stated) | – | 29.5 µM | 29.6 | 27.1 | – | 28.8 µM | 25.2 | 27.2 µM | 26.4 | – | – | 54.9 µM | – | – | – | – | – | – | – | –
19 | Cc1nc2ccccc2c(=O)n1/N=C(\N=Nc1ccccc1)c1ccccc1Cl | > 100 | 81.4 µM | > 100 | 64.2 | – | > 100 µM | > 100 | 66.3 µM | > 100 | – | – | > 100 µM | – | – | – | – | – | – | – | –
20 | CCCCN(CCCC)P(=O)(Oc1ccccc1)Oc1ccccc1 | 24.1 | 11.3 µM | 22 | – | 24.8 µM | 18.7 µM | 27.4 | 28 µM | 25.7 | 2.42 µM | 4.54 µM | 18.7 µM | 6.44 µM | 11.1 µM | 11600 | 4.73 | – | 11800 | 11.9 | 6.6
